Results: PubChem BioAssay (NCI)
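Briefly, cells in 96-well plates were exposed to five compound concentrations for 48 h, and endpoints were estimated by linear interpolation. GI50 marks 50% less growth. TGI: concentration producing complete growth inhibition.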

Assays:
Test in all cases: NCI anticancer screen, dose series, 48 h
[1] = test system: SNB-75 CNS
[2] = test system: SF-539 CNS
[3] = test system: OVCAR-5 ovarian
[4] = test system: EKVX NSCLC
[5] = test system: SF-295 CNS
[6] = test system: CAKI-1 renal
[7] = test system: HT29 colon
[8] = test system: MOLT-4 leukemia
[9] = test system: SW-620 colon
[10] = test system: NCI-H460 lung

| SMILES | TGI [1] | TGI [2] | TGI [3] | TGI [4] | TGI [5] | TGI [6] | TGI [7] | TGI [8] | TGI [9] | GI50 [1] | GI50 [2] | GI50 [3] | GI50 [10] | TGI [10] | GI50 [5] | GI50 [6] | GI50 [7] | GI50 [8] | GI50 [9] | GI50 [4] |
| --- | --- | --- | --- | --- | --- | --- | --- | --- | --- | --- | --- | --- | --- | --- | --- | --- | --- | --- | --- | --- |
| Cc1cc(Cl)ccc1NC(=O)C1C(=O)C(=O)N(c2ccc(Cl)cc2C)C1=O (configuration not stated) | > 100 µM | > 100 µM | > 100 µM | > 100 µM | > 100 µM | > 100 µM | > 100 µM | > 100 µM | > 100 µM |  |  |  |  |  |  |  |  |  |  |  |
| O=C1c2cccc3c([N+](=O)[O-])ccc(c23)C(=O)N1CCCCl | > 10 µM | > 10 µM | > 10 µM |  | > 10 µM | > 10 µM | > 10 µM | 5.95 µM | 5.95 µM | 2.86 µM | > 10 µM | > 10 µM | 5.55 µM | > 10 µM | > 10 µM | > 10 µM | 4.25 µM | 2.41 µM | 2.08 µM |  |
| Cc1cc(N(CCC#N)CCC#N)ccc1/C=C(\NC(=O)/C=C/c1ccccc1)NC(=O)Nc1ccccc1C |  | > 100 µM | > 100 µM | > 100 µM | > 100 µM | > 100 µM | > 100 µM | > 100 µM | > 100 µM |  |  |  |  | > 100 µM |  |  |  |  |  |  |
| COc1ccc(-c2cnc(SCC(=O)c3c(C)n(C)n(-c4ccccc4)c3=O)n2-c2ccc(OC)cc2)cc1 |  | > 50 µM | > 50 µM | > 50 µM | > 50 µM | > 50 µM | > 50 µM | > 50 µM | > 50 µM |  | > 50 µM | > 50 µM | 43.6 µM | > 50 µM | > 50 µM | > 50 µM | > 50 µM | 12.6 µM | > 50 µM | 29.7 µM |
| C[C@]12CC[C@H](OC(=O)Cc3ccc(N(CCCl)CCCl)cc3)CC1CC[C@@H]1C2CC[C@]2(C)NC(=O)CCC12 (some centres not stated) | 27.4 µM | 12.5 µM |  |  | 25.2 µM | 15.3 µM | 3.79 µM | 15.6 µM | 24.7 µM |  |  |  |  | 35.1 µM |  |  |  |  |  |  |
| COc1ccc(Nc2[nH]n(C3=Nc4ccccc4Sc4ccccc43)c(=O)c2C#N)cc1 | > 100 µM | 40.9 µM | > 100 µM | > 100 µM | 4.34 µM | 1.57 µM | 9.35 µM |  | > 100 µM | 1.51 µM | 3.37 µM | 10.8 µM | 1.95 µM | 12 µM | 0.56 µM | 0.255 µM | 1.99 µM |  | 3.18 µM | 0.781 µM |
| O=S1(=O)OCc2ccccc21 | > 100 µM | > 100 µM | > 100 µM | > 100 µM | > 100 µM |  | > 100 µM | 78.9 µM | > 100 µM |  |  |  |  | > 100 µM |  |  |  |  |  |  |
| Nc1c(C(=O)c2cccc(C(O)(CO)CO)c2)cnn1-c1ccc(F)cc1 | > 25 µM | > 25 µM | > 25 µM |  | > 25 µM | > 25 µM | > 25 µM | > 25 µM | > 25 µM | > 25 µM | > 25 µM | > 25 µM | > 25 µM | > 25 µM | > 25 µM | > 25 µM | > 25 µM | > 25 µM | > 25 µM |  |
| O=C(/C=C/c1ccc[nH]1)c1ccccc1 | > 100 µM | > 100 µM | > 100 µM |  | > 100 µM | > 100 µM | > 100 µM | > 100 µM | > 100 µM |  |  |  |  | > 100 µM |  |  |  |  |  |  |
| COc1cccc(-c2cc(=O)c3cc(C)c(C)c(C(=O)O)c3o2)c1 | 92.7 µM | > 100 µM | > 100 µM | > 100 µM | > 100 µM |  | > 100 µM | > 100 µM | > 100 µM |  |  |  |  | > 100 µM |  |  |  |  |  |  |
| COc1ccc2nc(-c3ccc(Cl)cc3)cc(-c3nnc(SCC(=O)Nc4ccc(/C(C)=N\O)cc4)o3)c2c1 | 6.34 µM | 10.7 µM | 10.2 µM | 15.3 µM | 3.08 µM |  | 5.54 µM | > 50 µM | 2.54 µM | 1.08 µM | 3 µM | 2.06 µM | 1.1 µM | 2.32 µM | 1.09 µM |  | 1.4 µM | 2.18 µM | 1.15 µM | 3.01 µM |
| CC1=CC[C@@H]2[C@@H](CC[C@@]2(C)O)C(C)(C)[C@H]1CC[C@@H]1[C@@]2(C)CC[C@@H](O)C(C)(C)O[C@@H]2CC[C@]1(C)O |  | 44 µM | > 100 µM |  | > 100 µM | 54.2 µM |  | 47.5 µM | 85.7 µM |  |  |  |  | 34.8 µM |  |  |  |  |  |  |
| Nc1nc2ccccc2c2[nH]c3ccccc3c12 | 16.4 µM | 3.37 µM | 4.11 µM | 11.6 µM |  |  | 1.93 µM |  | 1.96 µM | 5.49 µM | 1.76 µM | 1.84 µM |  |  |  |  | 0.509 µM |  | 0.384 µM | 3.19 µM |
| Cc1c(C)n(CC(O)CNC2CCCCC2C)c2ccccc12 (configuration not stated) | 21.7 µM | 30.4 µM | 25.7 µM |  | 28.2 µM | 24.9 µM |  | 41.2 µM | 35 µM | 10.1 µM | 15.8 µM | 12.9 µM | 15.7 µM | 31 µM | 14.1 µM | 12.4 µM |  | 15.3 µM | 17.9 µM |  |
| CC(=O)OC1COC(n2c(O)c(N=Nc3ccc([N+](=O)[O-])cc3)c3cc(Br)c([N+](=O)[O-])cc32)C(OC(C)=O)C1OC(C)=O (configuration not stated) |  | > 100 µM | > 100 µM | > 100 µM | 67.1 µM | > 100 µM | > 100 µM | > 100 µM | > 100 µM |  |  |  |  | > 100 µM |  |  |  |  |  |  |
| CC(C)(C)c1cc(O)c2c(c1O)C(=O)CCC2 | > 100 µM | > 100 µM |  | > 100 µM | 99.2 µM | 82.3 µM | > 100 µM | 53.8 µM | > 100 µM |  |  |  |  | > 100 µM |  |  |  |  |  |  |
| CN(C(=N)c1ccccc1)c1ccccc1 | > 100 µM | > 100 µM |  | > 100 µM | > 100 µM |  | > 100 µM | > 100 µM | > 100 µM |  |  |  |  |  |  |  |  |  |  |  |
| Nc1nc(=O)c2[nH]cnc2n1O | > 100 µM | > 100 µM | > 100 µM | > 100 µM | > 100 µM |  | > 100 µM | > 100 µM | > 100 µM |  |  |  |  | > 100 µM |  |  |  |  |  |  |
